Values quoted from earlier work as cited in patent US20210123869A1, “METHOD FOR MEASURING PH OF TEST WATER” (MIURA CO., LTD., priority 2018, published 2021).

details: value at 25° C.; two values for reagents acid-dissociated in two stages

Going from Cc1cc(C2(c3cc(C)c(O)c(Br)c3)OS(=O)(=O)c3ccccc32)cc(Br)c1O [bromocresol purple] to alizarin yellow, the “acid dissociation constant (pKa)” value rises from 6.3 to 11.06.

In the case of Cc1c(C2(c3cc(Br)c(O)c(Br)c3C)OS(=O)(=O)c3ccccc32)cc(Br)c(O)c1Br [bromocresol green], the “acid dissociation constant (pKa)” value is listed as 4.7.
